Data from patent publication US9617517B2, “Small chemical compound which promotes induction of differentiation of stem cells into insulin-producing cells and method for inducing differentiation of stem cells into insulin-producing cells using said small chemical compound” (NATIONAL UNIVERSITY CORPORATION KUMAMOTO UNIVERSITY, priority 2011, dated 2017).
Where a name gives a salt, the structure may show the parent alone.

Tests used:
[1] = test system: mouse ES cells (Pdx1/GFP); assay: Differentiation of mouse ES cells into insulin positive cells on nano fiber plate, immunostaining and quantitative image analysis; format: cell-based; settings: for hit confirmed by dose-responsiveness: 0.08 to 10 μM, SK7 ES cells; for effect on differentiation into insulin-expressing cells: compound added d11-d17, insulin staining d17 (FIG. 4, 5, 7, 8, 10); for Relative value of Ins positive cells: number of cells with no compound = 1, concentration of each compound (μM), added d11, d13, d15, analysed d17; for induction of the differentiation of stem cells into insulin-producing cells: similar separate experiments; for number of Pdx1/GFP positive cells / number of insulin positive cells: 0 to 10 μM added from d11, counted d17 (FIG. 14)
Text: Two ES cell lines, one expressing green fluorescent protein (GFP) under the control of insulin 1 promoter, designed ING (Higuchi Y., Shiraki N., Yamane K, Qin Z., Mochitate K., Araki K., Senokuchi K., Yamagata K., Hara M., Kume K., and Kume S., Synthesized basement membranes direct the differentiation of mouse embryonic stem cells into pancreatic lineages. J. Cell Science, 123, 2733-2742, 2010), and the other one expressing GFP under the control of Pdx1 promoter, designated SK7 (Shiraki N, Yoshida T, Araki K, et al. Guided differentiation of embryonic stem cells into Pdx1-expressing regional-specific definitive endoderm. Stem Cells. 2008; 26:874-885), were used. Both cell lines were maintained on mouse embryonic fibroblast (MEF) feeders in Glasgow minimum essential medium (Invitrogen) containing 1000 units/ml leukemia inhibitory factor (LIF; Chemicon), 15% Knocked-out Serum Replacement (KSR; Gibco), 1% fetal bovine serum (FBS; Hyclone), 100 μM nonessential amino acids (NEAA; Invitrogen), 2 mM L-glutamine (L-Gln; Invitrogen), 1 mM sodium pyruvate (Invitrogen), 50 units/ml penicillin and 50 μg/ml streptomycin (PS; Invitrogen) and 100 μM β-mercaptoethanol (β-ME; Sigma), as ES maintenance medium.
For the differentiation studies, ES cells were plated at 5,000 cells per well in Corning 96 well plate with Ultra-Web Synthetic Polyamine Surface (#3873XX1, Corning Coster, Cambridge, Miss.), and cultured. The cells were cultured in Dulbecco's Modified Eagle Medium (DMEM: Invitrogen, Glasgow, UK) containing 4500 mg/L glucose, supplemented with NEAA, L-Gln, PS, β-ME, 10 μg/ml insulin (Sigma-Aldrich), 5.5 μg/ml transferrin (Sigma-Aldrich), 6.7 pg/ml selenium (Sigma-Aldrich), and 0.25% Albmax (Invitrogen), 10 ng/mL recombinant human activin-A (R&D Systems, Minneapolis, Minn.), 5 ng/mL; recombinant human bFGF for 7 days (d1-d7) (I of FIG. 1). And then, the medium was changed to RPMI 1640 medium (Invitrogen) containing 2000 mg/L glucose (Sigma, St Louis, Mo.), 1 μM Retinoic acid (Sigma-Aldrich), 50 ng/ml Human Recombinant Fibroblast Growth Factor-10 (Peprotech, Rocky Hill, N.J.), B27 SUPPLEMENT (Invitrogen) and 0.25 μM 3-Keto-N-(aminoethyl-aminocaproyl-dihydrocinnamoyl) cyclopamine Shh Signaling Antagonist II (Calbiochem, San Diego, Calif.) on d7 to d11 (II of FIG. 1). Finally, the medium was switched to DMEM containing 1000 mg/L glucose supplemented with NEAA, L-Gln, PS, β-ME, 10 μg/ml insulin (Sigma-Aldrich), 5.5 μg/ml transferrin (Sigma-Aldrich), 6.7 pg/ml selenium (Sigma-Aldrich), 0.25% Albmax (Invitrogen) and 10 mM nicotinamide (Sigma-Aldrich) on d11 to d17 (III of FIG. 1). Media were replaced every 2 days with fresh medium and growth factors until d17.
All tested small chemical compounds were solved in dimethyl sulfoxide (DMSO) at given concentration. Compounds were added on d11, d13 and d15 in a medium. Final concentration of DMSO was adjusted at 1.0% in all experiments for compounds.
After 17 days cell culture, cultured ES cells were fixed in 4% paraformaldehyde in PBS for 30 min at room temperature, and rinsed several times with PBS. Then, cells were incubated in the added diluted primary antibody in 20% Blocking One (Nacalai tesque, Tokyo, Japan) in PEST (0.1% Tween-20 in PBS) in a humidified chamber for overnight at 4° C. After washing the cells in PBST, cells were incubated with the secondary antibody in 20% Blocking One for 2 hr at room temperature in dark. After washing off the secondary antibody in PBST, cells were counterstained with […] (DAPI) (Roche Diagnostics). The following antibodies were used as First antibodies: Rabbit anti-GFP (MBL International Corp., Woburn, Mass.), Mouse anti-Insulin (Sigma). The following antibodies were used as Secondary antibodies: Alexa 568-conjugated, Alexa 488-conjugated antibodies (Invitrogen) Cells were counterstained with DAPI (Roche Diagnotics, Basel, Switzerland).

[2] = test system: differentiated ES cells; assay: Secreted insulin and cellular insulin content by mouse c-peptide ELISA; format: cell-based; settings: TBZ 2.5 μM, dBu-cAMP 0.6 μM, day 11 to 17; sorted GFP positive cells day 17 (FIG. 18D)
[3] = test system: Ngn3/GFP mouse ES cells; assay: Ngn3 positive cell inducing rate; format: cell-based
Protocol: The influence exerted on the Ngn3 positive cell inducing rate by addition of TBZ (2.5 μM) or dBu-cAMP (0.6 μM) was confirmed. FIG. 16A is a view schematically showing the addition periods of TBZ or dBu-cAMP, and the addition periods are a) on days 9 to 11 of culture, b) on days 11 to 13 of culture, and c) on days 9 to 13 of culture.
First, the compound was not added or TBZ was added on days 9 to 13 of culture (period c), and visible light photographs and fluorescence of Ngn3/GFP mouse ES cells were observed on day 13 of culture. The left one is a visible light photograph and the right one is fluorescence.
Next, the compound was not added, or TBZ or dBu-cAMP was added under the above-described conditions a), b) and c), and the proportion of GFP positive cells on day 13 of culture was checked. The ratios of the proportions of GFP positive cells and Ngn3 positive cells when the ratio in the case of no addition is 1 are shown in FIG. 16C. […] The order of intensity of the effect was a), c), b) in descending order.

[4] = test system: differentiated ES cells; assay: Real time PCR of gene expression in differentiated ES cells; format: cell-based, mouse; settings: TBZ 2.5 μM

## CN1CC[C@@]2(C)c3cc(O)ccc3N(C)[C@@H]12.O=C(O)/C=C/C(=O)O [Eseroline fumarate salt, eseroline fumarate]
[1]
  hit confirmed by dose-responsiveness: positive
  effect on differentiation into insulin-expressing cells: increased insulin positive cells
  Relative value of Ins positive cells: 1.8

## C#CCN(C)Cc1ccccc1 [Pargyline, pargyline hydrochloride]
[1]; 1 μM Pargyline (FIG. 6, 7)
  effect on differentiation of Pdx1 positive cells into insulin-producing cells: disturbs the differentiation of Pdx1 positive cells into insulin-producing cells
[1]; reserpine 0.63 μM, Pargyline 1 μM (FIG. 6, 7)
  effect on Pdx1 positive pancreatic precursor cells: without influencing the ratio of Pdx1-expressing cells
[1]
  induction of the differentiation of stem cells into insulin-producing cells: induce the differentiation of stem cells into insulin-producing cells
[1]; with 0.63 μM reserpine
  effect of 1 μM Pargyline on differentiation in presence of reserpine: deactivated

## COc1cc2c(cc1OC)C1CC(=O)C(CC(C)C)CN1CC2 (stereo not shown) [Tetrabenazine, tetrabenazine]
[2]
  C-peptide content of GFP positive cells: increased
[3]; TBZ 2.5 μM on days 9 to 13, observed day 13 (FIG. 16B)
  Ngn3 positive cells (fluorescence): increase of Ngn3 positive cells
[3]; TBZ 2.5 μM or dBu-cAMP 0.6 μM, addition days 9-11, 11-13 or 9-13, day 13 (FIG. 16C)
  number of GFP positive cells: increased in all conditions
[4]; dBu-cAMP 0.6 μM (FIG. 13)
  expression of Abcc8: did not increase
  expression of Glut2: did not increase
  expression of MafA: increased slightly
  expression of Stx1: increased slightly
[4]; dBu-cAMP 0.6 μM from day 11, after day 13 (FIG. 15)
  expression level of MafA, time course: promoted
[4]; dBu-cAMP 0.6 μM from day 11, after day 15 (FIG. 15)
  expression level of Nkx6.1: strongly promoted
[4]; dBu-cAMP 0.6 μM from day 11, day 13 and day 15 (FIG. 15)
  expression level of Ngn3: increased remarkably
[4]; dBu-cAMP 0.6 μM from day 11, single after day 13, both after day 15 (FIG. 15)
  expression level of Insulin1: promoted
[1]
  effect on differentiation into insulin-expressing cells: promoted the differentiation into insulin-expressing cells

## NCCc1c[nH]c2ccc(O)cc12 [serotonin]
[1]
  number of Pdx1/GFP positive cells: did not vary
  number of insulin positive cells: decreased in a concentration-dependent manner

## COCCCC/C(=N\OCCN)c1ccc(C(F)(F)F)cc1 [fluvoxamine maleate]
[1]
  induction of the differentiation of stem cells into insulin-producing cells: induce the differentiation of stem cells into insulin-producing cells

## Nc1nc2ncc(CNc3ccc(C(=O)N[C@@H](CCC(=O)O)C(=O)O)cc3)nc2c(=O)[nH]1 [Folic acid, folic acid]
[1]
  hit confirmed by dose-responsiveness: positive

## CCN(CC)CCCC(C)Nc1c2ccc(Cl)cc2nc2ccc(OC)cc12 (stereo not shown) [quinacrine dihydrochloride dihydrate]
[1]
  induction of the differentiation of stem cells into insulin-producing cells: induce the differentiation of stem cells into insulin-producing cells

## OCCOCCN1CCN(C(c2ccccc2)c2ccc(Cl)cc2)CC1 (stereo not shown) [hydroxyzine dihydrochloride]
[1]
  induction of the differentiation of stem cells into insulin-producing cells: induce the differentiation of stem cells into insulin-producing cells

## Cc1nccn1CC1CCc2c(c3ccccc3n2C)C1=O (stereo not shown) [ondansetron hydrochloride]
[1]
  induction of the differentiation of stem cells into insulin-producing cells: induce the differentiation of stem cells into insulin-producing cells

## C[C@@H]1C(=O)O[C@H]2C[C@@]34[C@H]5C[C@@H](C(C)(C)C)[C@]36[C@@H](OC(=O)[C@@H]6O)O[C@@]4(C(=O)O5)[C@]21O [ginkgolide A]
[1]
  induction of the differentiation of stem cells into insulin-producing cells: induce the differentiation of stem cells into insulin-producing cells

## C[N+](C)(C)CCOC(N)=O [Carbachol, carbachol]
[1]
  effect on differentiation into insulin-expressing cells: increased insulin positive cells

## O=C(CCCN1CCN(c2ccccn2)CC1)c1ccc(F)cc1 [azaperone]
[1]
  induction of the differentiation of stem cells into insulin-producing cells: induce the differentiation of stem cells into insulin-producing cells

## C[C@](N)(Cc1ccc(O)cc1)C(=O)O [alpha- Methyltyrosine, α-methyltyrosine]
[1]
  effect on differentiation into insulin-expressing cells: the same effect

## NCCc1c[nH]cn1 [histamine]
[1]
  number of Pdx1/GFP positive cells: did not vary
  number of insulin positive cells: decreased in a concentration-dependent manner

## NCCc1ccc(O)c(O)c1 [dopamine]
[1]; 0.1 μM dopamine (FIG. 11B)
  effect on insulin positive cells: decreased insulin positive cells
[1]; 0.1 μM dopamine with 0.6 μM dBu-cAMP (FIG. 11B)
  effect on enhancement effect of dBu-cAMP: scarcely influenced
[1]; 0.1 μM dopamine with 0.6 μM reserpine (FIG. 11B)
  effect on increase of insulin-expressing cells mediated by reserpine: inhibited completely
[1]; FIG. 8
  concentration inhibiting completely the differentiation of β cells: ≥ 100 nM
[1]
  effect on differentiation into insulin-expressing cells: suppressed the differentiation of pancreas in a dose-dependent manner

## C[C@@](Cc1ccc(O)c(O)c1)(NN)C(=O)O [Carbidopa, carbidopa]
[1]
  effect on differentiation into insulin-expressing cells: the same effect

## N[C@@H](Cc1c[nH]c2ccc(O)cc12)C(=O)O [5HTP, 5-hydroxytryptophan]
[1]
  effect on differentiation into insulin-expressing cells: the same effect

## CO[C@@H]1[C@@H]2OP(=O)(O)OC[C@H]2O[C@H]1n1c(Sc2ccc(Cl)cc2)nc2c(N)ncnc21 [8-CPT-2-Me-cAMP]
[1]
  Relative value of Ins positive cells: 3.7

## CN(C)CCCSC(=N)N [dimaprit dihydrochloride]
[1]
  induction of the differentiation of stem cells into insulin-producing cells: induce the differentiation of stem cells into insulin-producing cells

## CN(C)CCC(c1ccc(Cl)cc1)c1ccccn1 (stereo not shown) [chlorpheniramine maleate]
[1]
  induction of the differentiation of stem cells into insulin-producing cells: induce the differentiation of stem cells into insulin-producing cells

## CN/C(=N/CCSCc1nc[nH]c1C)NC#N [cimetidine]
[1]
  induction of the differentiation of stem cells into insulin-producing cells: induce the differentiation of stem cells into insulin-producing cells

## Cc1c2ccncc2c(C)c2c1[nH]c1ccccc12 [ellipticine]
[1]
  hit confirmed by dose-responsiveness: positive

## COc1cc2c(cc1OC)-c1cc3ccc(OC)c(OC)c3c[n+]1CC2 [Palmatine chloride, palmatine chloride]
[1]
  hit confirmed by dose-responsiveness: positive
  effect on differentiation into insulin-expressing cells: increased insulin positive cells
